Columns and labels:
[1] = target: T1, human recombinant ETA receptors (Homo sapiens, UniProt P25101); assay: Inhibition of [125I]ET-1 binding to membranes from CHO cells carrying human ETA receptors
T1 construct: expressed in transfected cells; host or cells: CHO cells (microsomal membranes)
T1 sequence (P25101 21-427): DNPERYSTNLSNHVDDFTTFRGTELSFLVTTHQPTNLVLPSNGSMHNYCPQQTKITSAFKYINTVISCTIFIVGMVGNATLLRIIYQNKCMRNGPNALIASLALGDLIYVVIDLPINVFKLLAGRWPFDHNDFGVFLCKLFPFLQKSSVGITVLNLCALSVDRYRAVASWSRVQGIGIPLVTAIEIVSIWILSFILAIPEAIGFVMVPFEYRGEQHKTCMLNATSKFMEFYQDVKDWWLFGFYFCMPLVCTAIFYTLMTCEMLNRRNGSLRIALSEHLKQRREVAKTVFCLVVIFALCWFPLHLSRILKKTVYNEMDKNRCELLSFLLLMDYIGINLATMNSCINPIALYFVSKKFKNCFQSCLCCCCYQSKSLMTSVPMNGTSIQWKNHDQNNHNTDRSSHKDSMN
Protocol: (§1) 1) Inhibition of Endothelin Binding to Membranes from CHO Cells Carrying Human ET Receptors:
(§2) For competition binding studies, membranes of CHO cells expressing human recombinant ETA or ETB receptors were used.
(§3) The assay was performed in 200 uL 50 mM Tris/HCl buffer, pH 7.4, including 25 mM MnCl2, 1 mM EDTA and 0.5% (w/v) BSA in polypropylene microtiter plates. […] After 2 h, the membranes were filtered on filterplates containing GF/C filters (Unifilterplates from Canberra Packard S.A. Zürich, Switzerland). To each well, 50 uL of scintillation cocktail was added (MicroScint 20, Canberra Packard S.A. Zürich, Switzerland) and the filter plates counted in a microplate counter (TopCount, Canberra Packard S.A. Zürich, Switzerland).
(§4) All the test compounds were dissolved, diluted and added in DMSO.

[2] = target: T2, human recombinant ETB receptors (Homo sapiens, UniProt P24530); assay: Inhibition of [125I]ET-1 binding to membranes from CHO cells carrying human ETB receptors
T2 construct: expressed in transfected cells; host or cells: CHO cells (microsomal membranes)
T2 sequence (P24530 27-442): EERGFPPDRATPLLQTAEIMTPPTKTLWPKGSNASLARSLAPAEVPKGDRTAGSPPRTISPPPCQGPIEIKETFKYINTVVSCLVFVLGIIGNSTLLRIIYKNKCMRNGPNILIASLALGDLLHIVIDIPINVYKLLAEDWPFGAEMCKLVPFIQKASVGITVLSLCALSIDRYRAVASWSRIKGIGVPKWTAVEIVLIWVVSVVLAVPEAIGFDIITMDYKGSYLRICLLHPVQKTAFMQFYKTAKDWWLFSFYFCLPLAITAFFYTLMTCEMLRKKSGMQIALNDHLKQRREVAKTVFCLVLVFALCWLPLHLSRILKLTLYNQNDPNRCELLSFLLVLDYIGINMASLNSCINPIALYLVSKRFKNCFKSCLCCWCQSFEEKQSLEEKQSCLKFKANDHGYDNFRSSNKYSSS
Protocol: as §1, §2, §3, §4
Note: 2.5% DMSO.

CCCS(=O)(=O)Nc1nc(-c2ncccn2)nc(OCCOc2ncc(SC)cn2)c1Oc1ccccc1OC [Example 9, n-propanesulfonic acid [6-[2-(5-methylsulfanyl-pyrimidin-2-yloxy)-ethoxy]-5-(2-methoxy-phenoxy)-[2,2′]bipyrimidinyl-4-yl]-amide]
IC50 [1]: 5.2 nM
IC50 [2]: 187 nM

CCCCS(=O)(=O)Nc1ncnc(OCCOc2ncc(S(C)(=O)=O)cn2)c1Oc1cccc(OC)c1 [Example 31]
IC50 [1]: 1.8 nM
IC50 [2]: 180 nM

CCCCS(=O)(=O)Nc1ncnc(OCCOc2ncc(SC)cn2)c1Oc1cccc(OC)c1 [Example 30]
IC50 [1]: 2.3 nM
IC50 [2]: 111 nM

CCCCS(=O)(=O)Nc1ncnc(OCCOc2ncc(OC)cn2)c1-c1ccc(C)cc1 [Example 75]
IC50 [1]: 3.5 nM
IC50 [2]: > 1000 nM

CCS(=O)(=O)Nc1ncnc(OCCOc2ncc(SC)cn2)c1-c1ccc(Cl)cc1 [Example 68]
IC50 [1]: 1.2 nM
IC50 [2]: 563 nM

CCCS(=O)(=O)Nc1ncnc(OCCOc2ncc(SC)cn2)c1Oc1ccccc1OC [Example 34]
IC50 [1]: 6.5 nM
IC50 [2]: 159 nM

CCCCS(=O)(=O)Nc1ncnc(OCCOc2ncc(S(C)(=O)=O)cn2)c1-c1ccc(Br)cc1 [Example 84]
IC50 [1]: 0.56 nM
IC50 [2]: 118 nM

CCS(=O)(=O)Nc1ncnc(OCCOc2ncc(OC)cn2)c1-c1ccc(Br)cc1 [Example 59]
IC50 [1]: 6.8 nM
IC50 [2]: > 1000 nM

COc1ccccc1Oc1c(NS(C)(=O)=O)nc(-c2ncccn2)nc1OCCOc1ncc(SC)cn1 [Example 16]
IC50 [1]: 12 nM
IC50 [2]: 79 nM

CCS(=O)(=O)Nc1ncnc(OCCOc2ncc(OC)cn2)c1-c1ccc(C)cc1 [Example 3, ethanesulfonic acid {6-[2-(5-methoxy-pyrimidin-2-yloxy)-ethoxy]-5-p-tolyl-pyrimidin-4-yl}-amide]
IC50 [1]: 38.2 nM
IC50 [2]: > 1000 nM

COc1ccccc1Oc1c(NS(C)(=O)=O)ncnc1OCCOc1ncc(SC)cn1 [Example 19]
IC50 [1]: 22 nM
IC50 [2]: 155 nM

CCS(=O)(=O)Nc1nc(-c2ncccn2)nc(OCCOc2ncc(SC)cn2)c1Oc1ccccc1OC [Example 11, ethanesulfonic acid [6-[2-(5-methylsulfanyl-pyrimidin-2-yloxy)-ethoxy]-5-(2-methoxy-phenoxy)-[2,2′]bipyrimidinyl-4-yl]-amide]
IC50 [1]: 5.3 nM
IC50 [2]: 59 nM

CCCCS(=O)(=O)Nc1ncnc(OCCOc2ncc(Br)cn2)c1Oc1cccc(OC)c1 [Example 28]
IC50 [1]: 2.9 nM
IC50 [2]: 595 nM

CCCS(=O)(=O)Nc1ncnc(OCCOc2ncc(S(C)(=O)=O)cn2)c1-c1ccc(Br)cc1 [Example 73]
IC50 [1]: 0.59 nM
IC50 [2]: 277 nM

CCCCS(=O)(=O)Nc1nc(-c2ncccn2)nc(OCCOc2ncc(SC)cn2)c1Oc1ccccc1OC [Example 27]
IC50 [1]: 2.8 nM
IC50 [2]: 153 nM

CCS(=O)(=O)Nc1ncnc(OCCOc2ncc(S(C)(=O)=O)cn2)c1-c1ccc(Br)cc1 [Example 61]
IC50 [1]: 1.1 nM
IC50 [2]: 271 nM

CCCCS(=O)(=O)Nc1nc(C2CC2)nc(OCCOc2ncc(S(C)(=O)=O)cn2)c1-c1ccc(C)cc1 [Example 80]
IC50 [1]: 1.5 nM
IC50 [2]: > 1000 nM

CS(=O)(=O)Nc1ncnc(OCCOc2ncc(C3CC3)cn2)c1-c1ccc(Br)cc1 [Example 57]
IC50 [1]: 6.9 nM
IC50 [2]: > 1000 nM

CCS(=O)(=O)Nc1ncnc(OCCOc2ncc(Br)cn2)c1-c1ccc(Cl)cc1 [Example 66]
IC50 [1]: 1.5 nM
IC50 [2]: > 1000 nM

Cc1ccc(-c2c(NS(C)(=O)=O)ncnc2OCCOc2ncc(Br)cn2)cc1 [Example 47]
IC50 [1]: 2.9 nM
IC50 [2]: > 1000 nM

CCCS(=O)(=O)Nc1ncnc(OCCOc2ncc(S(C)(=O)=O)cn2)c1Oc1ccccc1OC [Example 35]
IC50 [1]: 11 nM
IC50 [2]: > 1000 nM

CCCCS(=O)(=O)Nc1ncnc(OCCOc2ncc(OC)cn2)c1-c1ccc(Br)cc1 [Example 82]
IC50 [1]: 1.27 nM
IC50 [2]: > 1000 nM

COc1cnc(OCCOc2ncnc(NS(C)(=O)=O)c2-c2ccc(Br)cc2)nc1 [Example 54]
IC50 [1]: 18 nM
IC50 [2]: > 1000 nM

CCCS(=O)(=O)Nc1ncnc(OCCOc2ncc(SC)cn2)c1-c1ccc(Br)cc1 [Example 72]
IC50 [1]: 0.6 nM
IC50 [2]: 936 nM

CCCS(=O)(=O)Nc1ncnc(OCCOc2ncc(SC)cn2)c1-c1ccc(C)cc1 [Example 5, propane-1-sulfonic acid {6-[2-(5-methylsulfanyl-pyrimidin-2-yloxy)-ethoxy]-5-p-tolyo-pyrimidin-4-yl}-amide]
IC50 [1]: 3.6 nM
IC50 [2]: > 1000 nM

CCCS(=O)(=O)Nc1ncnc(OCCOc2ncc(OC)cn2)c1-c1ccc(Br)cc1 [Example 71]
IC50 [1]: 3.6 nM
IC50 [2]: > 1000 nM

CCS(=O)(=O)Nc1nc(C2CC2)nc(OCCOc2ncc(SC)cn2)c1-c1ccc(C)cc1 [Example 64]
IC50 [1]: 3.5 nM
IC50 [2]: > 1000 nM

CS(=O)(=O)Nc1ncnc(OCCOc2ncc(Br)cn2)c1-c1ccc(Br)cc1 [Example 53]
IC50 [1]: 1.1 nM
IC50 [2]: 824 nM
